# Measurements taken from the NIST ThermoML archive (doi:10.1021/acs.jced.9b00248).
# ± gives the expanded uncertainty stated by the source.
# Assay: mn = molality of the nth substance listed, in mol/kg
# Conditions: Liquid; for viscosity: Vibrating wire viscometry; for mass density: Vibrating tube method
structure (smiles),measurement,setting,value
[Cl-].[Na+] [sodium chloride] + O,viscosity,"274.65 K, 1400 kPa, m1 = 0.77",1.748 ± 0.053 mPa·s
same,viscosity,"274.65 K, 15300 kPa, m1 = 0.77",1.718 ± 0.052 mPa·s
same,viscosity,"274.65 K, 30200 kPa, m1 = 0.77",1.704 ± 0.052 mPa·s
same,viscosity,"274.65 K, 50100 kPa, m1 = 0.77",1.7 ± 0.052 mPa·s
same,mass density,"274.83 K, 15210 kPa, m1 = 0.77",1039.38 ± 0.69 kg/m3
same,mass density,"274.83 K, 30120 kPa, m1 = 0.77",1045.95 ± 0.7 kg/m3
same,mass density,"274.83 K, 49950 kPa, m1 = 0.77",1054.41 ± 0.71 kg/m3
same,mass density,"274.83 K, 69810 kPa, m1 = 0.77",1062.53 ± 0.73 kg/m3
same,mass density,"274.83 K, 99820 kPa, m1 = 0.77",1074.13 ± 0.78 kg/m3
same,mass density,"274.95 K, 1340 kPa, m1 = 2.5",1098.36 ± 0.87 kg/m3
same,mass density,"274.95 K, 15260 kPa, m1 = 2.5",1103.81 ± 0.88 kg/m3
same,mass density,"274.95 K, 30190 kPa, m1 = 2.5",1109.5 ± 0.89 kg/m3
same,mass density,"274.95 K, 50040 kPa, m1 = 2.5",1116.83 ± 0.92 kg/m3
same,mass density,"274.95 K, 69930 kPa, m1 = 2.5",1123.92 ± 0.97 kg/m3
same,mass density,"274.95 K, 99990 kPa, m1 = 2.5",1134.12 ± 1.1 kg/m3
same,mass density,"296.19 K, 1330 kPa, m1 = 2.5",1090.47 ± 0.85 kg/m3
same,mass density,"296.19 K, 15240 kPa, m1 = 2.5",1095.73 ± 0.86 kg/m3
same,mass density,"296.19 K, 30160 kPa, m1 = 2.5",1101.16 ± 0.87 kg/m3
same,mass density,"296.19 K, 50020 kPa, m1 = 2.5",1108.18 ± 0.92 kg/m3
same,mass density,"296.19 K, 69880 kPa, m1 = 2.5",1115.02 ± 0.96 kg/m3
same,mass density,"296.19 K, 99980 kPa, m1 = 2.5",1124.82 ± 1 kg/m3
same,mass density,"296.22 K, 1380 kPa, m1 = 0.77",1028.25 ± 0.69 kg/m3
same,mass density,"296.22 K, 15220 kPa, m1 = 0.77",1034.12 ± 0.7 kg/m3
same,mass density,"296.22 K, 49930 kPa, m1 = 0.77",1048.04 ± 0.71 kg/m3
same,mass density,"296.22 K, 69810 kPa, m1 = 0.77",1055.61 ± 0.72 kg/m3
same,mass density,"296.22 K, 99840 kPa, m1 = 0.77",1066.51 ± 0.76 kg/m3
same,mass density,"323.3 K, 1380 kPa, m1 = 2.5",1077.94 ± 0.83 kg/m3
same,mass density,"323.3 K, 15290 kPa, m1 = 2.5",1083.2 ± 0.84 kg/m3
same,mass density,"323.3 K, 30220 kPa, m1 = 2.5",1088.58 ± 0.85 kg/m3
same,mass density,"323.3 K, 50060 kPa, m1 = 2.5",1095.53 ± 0.91 kg/m3
same,mass density,"323.3 K, 69950 kPa, m1 = 2.5",1102.24 ± 0.94 kg/m3
same,mass density,"323.3 K, 100010 kPa, m1 = 2.5",1111.99 ± 1 kg/m3
same,mass density,"323.33 K, 1340 kPa, m1 = 0.77",1017.8 ± 0.69 kg/m3
same,mass density,"323.33 K, 15260 kPa, m1 = 0.77",1023.47 ± 0.69 kg/m3
same,mass density,"323.33 K, 30160 kPa, m1 = 0.77",1029.36 ± 0.7 kg/m3
same,mass density,"323.33 K, 69840 kPa, m1 = 0.77",1044.3 ± 0.71 kg/m3
same,mass density,"323.33 K, 99890 kPa, m1 = 0.77",1054.9 ± 0.74 kg/m3
same,mass density,"348.21 K, 1360 kPa, m1 = 2.5",1064.12 ± 0.82 kg/m3
same,mass density,"348.21 K, 1380 kPa, m1 = 0.77",1004.37 ± 0.68 kg/m3
same,mass density,"348.21 K, 15260 kPa, m1 = 0.77",1010.15 ± 0.68 kg/m3
same,mass density,"348.21 K, 15270 kPa, m1 = 2.5",1069.47 ± 0.83 kg/m3
same,mass density,"348.21 K, 30180 kPa, m1 = 0.77",1016.18 ± 0.69 kg/m3
same,mass density,"348.21 K, 30200 kPa, m1 = 2.5",1075.01 ± 0.84 kg/m3
same,mass density,"348.21 K, 50000 kPa, m1 = 0.77",1023.83 ± 0.69 kg/m3
same,mass density,"348.21 K, 50060 kPa, m1 = 2.5",1082.15 ± 0.85 kg/m3
same,mass density,"348.21 K, 69880 kPa, m1 = 0.77",1031.26 ± 0.69 kg/m3
same,mass density,"348.21 K, 69960 kPa, m1 = 2.5",1089.02 ± 0.94 kg/m3
same,mass density,"348.21 K, 99920 kPa, m1 = 0.77",1041.89 ± 0.72 kg/m3
same,mass density,"348.21 K, 100020 kPa, m1 = 2.5",1098.91 ± 1 kg/m3
same,viscosity,"348.34 K, 1400 kPa, m1 = 0.77",0.412 ± 0.013 mPa·s
same,viscosity,"348.34 K, 15300 kPa, m1 = 0.77",0.416 ± 0.013 mPa·s
same,viscosity,"348.34 K, 30200 kPa, m1 = 0.77",0.421 ± 0.014 mPa·s
same,viscosity,"348.34 K, 50000 kPa, m1 = 0.77",0.429 ± 0.014 mPa·s
same,viscosity,"348.34 K, 69900 kPa, m1 = 0.77",0.433 ± 0.014 mPa·s
same,mass density,"373.22 K, 1380 kPa, m1 = 2.5",1047.69 ± 0.81 kg/m3
same,mass density,"373.22 K, 15310 kPa, m1 = 2.5",1053.49 ± 0.82 kg/m3
same,mass density,"373.22 K, 30230 kPa, m1 = 2.5",1059.36 ± 0.83 kg/m3
same,mass density,"373.22 K, 50090 kPa, m1 = 2.5",1066.79 ± 0.84 kg/m3
same,mass density,"373.22 K, 69960 kPa, m1 = 2.5",1073.94 ± 0.86 kg/m3
same,mass density,"373.22 K, 100040 kPa, m1 = 2.5",1084.13 ± 0.98 kg/m3
same,mass density,"373.25 K, 1400 kPa, m1 = 0.77",988.09 ± 0.67 kg/m3
same,mass density,"373.25 K, 15310 kPa, m1 = 0.77",994.18 ± 0.67 kg/m3
same,mass density,"373.25 K, 30220 kPa, m1 = 0.77",1000.44 ± 0.67 kg/m3
same,mass density,"373.25 K, 50060 kPa, m1 = 0.77",1008.5 ± 0.68 kg/m3
same,mass density,"373.25 K, 69930 kPa, m1 = 0.77",1016.2 ± 0.69 kg/m3
same,mass density,"373.25 K, 99960 kPa, m1 = 0.77",1027.15 ± 0.69 kg/m3
same,viscosity,"373.31 K, 1400 kPa, m1 = 0.77",0.31 ± 0.01 mPa·s
same,viscosity,"373.31 K, 30200 kPa, m1 = 0.77",0.318 ± 0.011 mPa·s
same,viscosity,"373.31 K, 50000 kPa, m1 = 0.77",0.323 ± 0.011 mPa·s
same,viscosity,"373.31 K, 69900 kPa, m1 = 0.77",0.329 ± 0.011 mPa·s
same,viscosity,"373.31 K, 100000 kPa, m1 = 0.77",0.338 ± 0.011 mPa·s
same,viscosity,"398.18 K, 1400 kPa, m1 = 0.77",0.247 ± 0.009 mPa·s
same,viscosity,"398.18 K, 15300 kPa, m1 = 0.77",0.251 ± 0.009 mPa·s
same,viscosity,"398.18 K, 30200 kPa, m1 = 0.77",0.256 ± 0.009 mPa·s
same,viscosity,"398.18 K, 50100 kPa, m1 = 0.77",0.26 ± 0.009 mPa·s
same,viscosity,"398.18 K, 70000 kPa, m1 = 0.77",0.265 ± 0.009 mPa·s
same,viscosity,"398.18 K, 100000 kPa, m1 = 0.77",0.273 ± 0.009 mPa·s
same,mass density,"398.29 K, 1390 kPa, m1 = 2.5",1029.58 ± 0.94 kg/m3
same,mass density,"398.29 K, 15300 kPa, m1 = 2.5",1035.58 ± 0.94 kg/m3
same,mass density,"398.29 K, 30230 kPa, m1 = 2.5",1041.92 ± 0.93 kg/m3
same,mass density,"398.29 K, 50080 kPa, m1 = 2.5",1049.89 ± 0.93 kg/m3
same,mass density,"398.29 K, 69980 kPa, m1 = 2.5",1057.41 ± 0.94 kg/m3
same,mass density,"398.29 K, 100050 kPa, m1 = 2.5",1068.15 ± 0.97 kg/m3
same,mass density,"398.81 K, 1460 kPa, m1 = 0.77",969.16 ± 0.64 kg/m3
same,mass density,"398.81 K, 15370 kPa, m1 = 0.77",975.7 ± 0.65 kg/m3
same,mass density,"398.81 K, 30260 kPa, m1 = 0.77",982.49 ± 0.65 kg/m3
same,mass density,"398.81 K, 50080 kPa, m1 = 0.77",991.06 ± 0.66 kg/m3
same,mass density,"398.81 K, 69950 kPa, m1 = 0.77",999.13 ± 0.66 kg/m3
same,mass density,"398.81 K, 99990 kPa, m1 = 0.77",1010.69 ± 0.67 kg/m3
same,viscosity,"423.31 K, 15300 kPa, m1 = 0.77",0.206 ± 0.008 mPa·s
same,viscosity,"423.31 K, 30200 kPa, m1 = 0.77",0.212 ± 0.008 mPa·s
same,viscosity,"423.31 K, 50100 kPa, m1 = 0.77",0.216 ± 0.008 mPa·s
same,viscosity,"423.31 K, 70000 kPa, m1 = 0.77",0.22 ± 0.008 mPa·s
same,viscosity,"423.31 K, 100000 kPa, m1 = 0.77",0.228 ± 0.008 mPa·s
same,mass density,"423.62 K, 1410 kPa, m1 = 2.5",1009.24 ± 0.98 kg/m3
same,mass density,"423.62 K, 15330 kPa, m1 = 2.5",1015.81 ± 0.97 kg/m3
same,mass density,"423.62 K, 30250 kPa, m1 = 2.5",1022.75 ± 0.81 kg/m3
same,mass density,"423.62 K, 50100 kPa, m1 = 2.5",1031.25 ± 0.81 kg/m3
same,mass density,"423.62 K, 69990 kPa, m1 = 2.5",1039.38 ± 0.82 kg/m3
same,mass density,"423.62 K, 100050 kPa, m1 = 2.5",1050.77 ± 0.96 kg/m3
same,mass density,"423.73 K, 1450 kPa, m1 = 0.77",947.66 ± 0.63 kg/m3
same,mass density,"423.73 K, 15370 kPa, m1 = 0.77",954.86 ± 0.64 kg/m3
same,mass density,"423.73 K, 30270 kPa, m1 = 0.77",962.29 ± 0.66 kg/m3
same,mass density,"423.73 K, 50110 kPa, m1 = 0.77",971.57 ± 0.66 kg/m3
same,mass density,"423.73 K, 69960 kPa, m1 = 0.77",980.32 ± 0.67 kg/m3
same,mass density,"423.73 K, 100000 kPa, m1 = 0.77",992.59 ± 0.66 kg/m3
same,viscosity,"448.27 K, 30300 kPa, m1 = 0.77",0.181 ± 0.007 mPa·s
same,viscosity,"448.27 K, 50100 kPa, m1 = 0.77",0.185 ± 0.007 mPa·s
same,viscosity,"448.27 K, 70000 kPa, m1 = 0.77",0.19 ± 0.007 mPa·s
same,viscosity,"448.27 K, 100000 kPa, m1 = 0.77",0.197 ± 0.007 mPa·s
same,mass density,"448.85 K, 1410 kPa, m1 = 2.5",987.39 ± 1 kg/m3
same,mass density,"448.85 K, 15330 kPa, m1 = 2.5",994.66 ± 0.98 kg/m3
same,mass density,"448.85 K, 30260 kPa, m1 = 2.5",1002.41 ± 0.97 kg/m3
same,mass density,"448.85 K, 50110 kPa, m1 = 2.5",1011.56 ± 0.8 kg/m3
same,mass density,"448.97 K, 1460 kPa, m1 = 0.77",923.83 ± 0.62 kg/m3
same,mass density,"448.97 K, 15380 kPa, m1 = 0.77",932.02 ± 0.63 kg/m3
same,mass density,"448.97 K, 30290 kPa, m1 = 0.77",940.31 ± 0.63 kg/m3
same,mass density,"448.97 K, 50120 kPa, m1 = 0.77",950.53 ± 0.66 kg/m3
same,mass density,"448.97 K, 69980 kPa, m1 = 0.77",960.05 ± 0.67 kg/m3
same,mass density,"448.97 K, 100000 kPa, m1 = 0.77",973.43 ± 0.66 kg/m3
